Results as given in patent publication EP4810508A1, “ARABINOSE DERIVATIVE COMPOUND, AND COMPOSITION COMPRISING SAME FOR PREVENTING OR TREATING DEGENERATIVE BRAIN DISEASES” (Digmbio. Inc., priority 2023, dated 2025).
Like-named read-outs stand apart in the source and are kept apart here.

Key:
male ICR mice [1] = experiment: Scopolamine-induced cognitive impairment model: passive avoidance test (PAT); format: in vivo; details: for percent recovery of memory in passive avoidance test (normal group = 100, scopolamine control = 0) at 50 mg/kg: Mus musculus, po, 168 h, read-out: in vivo(effect) PAT (%); for in vivo PAT: time staying in bright room (step-through latency)
Text: (§1) A memory loss rodent animal model induced by scopolamine intraperitoneal administration is used, and an evaluation method for memory uses a Y-maze test and a passive avoidance test (PAT). Scopolamine is a representative experimental model showing an impairment of cognitive function similar to AD patients by blocking neurotransmitters when administered to an animal as an antagonist of a muscarinic acetylcholine receptor, and as a cognitive function evaluation technique, a Y-maze test and a passive avoidance experiment, which are general and representative methods, were used, and in order to objectify the efficacy levels of the compounds, a group administered with donepezil (Aricept, Eisa) as a positive control material was separately provided to compare the efficacy levels of the compounds.
(§2) In order to evaluate cognitive function, 5-week-old male ICR mice were used, the compounds to be evaluated were prepared at a dose of 50 mg/kg/ml and repeatedly orally administered at a predetermined time for 7 days, and the positive control material was carried out at 5 mg/kg/ml. After the last administration, after 30 minutes of intraperitoneal administration of 1 mg/kg/2 ml of scopolamine, a Y-maze test and a passive avoidance test, which are cognitive function evaluations, were performed.
In addition, the passive avoidance test was conducted using an avoidance learning box (Jeondo B&P, Korea, Seoul), and the avoidance learning box is divided into a dark room and a bright room, and when a laboratory animal is put into a bright room, the subject goes beyond the dark room. At the moment, an electric shock of 0.5 mA is applied for 5 seconds, and when the next day experimental animal is put back into a bright room, an electric shock in a dark room is memorized and stay in a bright room. In this case, a step-through latency is measured to evaluate memory. The efficacy of the compounds of the present invention against the normal group and the control group in the Y-maze test and the passive avoidance test was described in the following Table 3 (Scopolamine-induced cognitive impairment model result).

male ICR mice [2] = experiment: Scopolamine-induced cognitive impairment model: Y-maze test; format: in vivo; details: for percent recovery of cognitive function (Y-maze) at 50 mg/kg: Mus musculus, po, 168 h; for in vivo Y-maze (%): spontaneous alternation
Text: as §1, §2
The Y-maze test is a method for evaluating the ability to sequentially act as an experiment for measuring short-term memory. The measurement equipment is composed of three branches, each branch has a length of 42 cm, a width of 3 cm, and a height of 12 cm, and an angle at which three branches are folded is 120°. Experimental animals are put into each branch for 8 minutes, and the number of times of entering the branches to the tail of the experimental animal and the case of being sequentially received in each branch are scored (actual alternation). The alternation behavior is defined as entering not to overlap all three, and is calculated by the following equation. [formula]

HRE/Luc/HEK293 cells = experiment: HRE (Hypoxia Response Element) luciferase assay; format: cell-based, human; details: for fold induction at 10 µM / fold induction at 100 µM: Homo sapiens; for HRE assay: increase in HRE expression levels by the test substance relative to the vehicle in HRE/Luc/HEK293 cells
Method in brief: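 HRE-luciferase HEK293 cells in MEM/10% FBS pretreated with compound 6 h, then held under hypoxia (0.1% O2) 18 h; luminescence read after lysis. Scored as fold increase over vehicle, with twofold threshold at 100, 10 or 1 µM.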

[3] = scopolamine 1 mg/kg i.p., compounds 50 mg/kg oral for 7 days, donepezil 5 mg/kg (avg.)
[4] = read-out: in vivo(effect) Y-maze (%)
[5] = HEK293, fold increase of HRE expression, hypoxic conditions (O2 0.1%) 18 hours, Table 2, read-out: HRE-increasing 10uM
[6] = HEK293, fold increase of HRE expression, hypoxic conditions (O2 0.1%) 18 hours, Table 2, read-out: HRE-increasing 100uM
[7] = compounds 50 mg/kg, donepezil 5 mg/kg, orally for 7 days, scopolamine 1 mg/kg intraperitoneal
[8] = effect compared to normal group (100) and control group (0), compounds 50 mg/kg oral for 7 days, donepezil 5 mg/kg (avg.)
[9] = range over experiment sets, donepezil 5 mg/kg oral for 7 days, scopolamine 1 mg/kg i.p.
[10] = range over experiment sets, effect compared to normal and control group, donepezil 5 mg/kg
[11] = HEK293, 18 h, Table 2 (Examples 75-109, 114), read-out: HRE-inceasing 10uM
[12] = HEK293, 18 h, Table 2 (Examples 75-109, 114), read-out: HRE-inceasing 100uM
[13] = HEK293, 18 h, Table 2 (Examples 37-74, 52), read-out: HKt-increasing 10uM
[14] = HEK293, 18 h, Table 2 (Examples 37-74, 52), read-out: HKt-increasing 100uM

SMILES	in vivo PAT (male ICR mice [1]; [3]) [s]	in vivo Y-maze (%) (male ICR mice [2]; [3])	fold induction at 10 µM (HRE/Luc/HEK293 cells; [5])	fold induction at 100 µM (HRE/Luc/HEK293 cells; [6])	fold induction at 10 µM (HRE/Luc/HEK293 cells; [11])	fold induction at 100 µM (HRE/Luc/HEK293 cells; [12])	other results
Cc1ccc(Oc2ccc(O[C@H]3OC[C@H](O)[C@H](O)[C@H]3O)cc2)cc1 [Example 33, (2R,3R,4S,5S)-2-(4-(para-tolyloxy)phenoxy) tetrahydro-2H-pyran-3,4,5-triol]	58	56	3.8	2.5	–	–	percent recovery of memory in passive avoidance test (normal group = 100, scopolamine control = 0) at 50 mg/kg (male ICR mice [1]): 10%; percent recovery of cognitive function (Y-maze) at 50 mg/kg (male ICR mice [2]; [4]): 30%; HRE expression (HRE/Luc/HEK293 cells; concentration of 10 µM): more than threefold
CC(C)c1ccc(Cc2ccc(O[C@H]3OC[C@H](O)[C@H](O)[C@H]3O)c(Cl)c2)cc1 [Example 8, (2R,3R,4S,5S)-2-(2-chloro-4-(4-isopropylbenzyl)phenoxy)tetrahydro-2H-pyran-3,4,5-triol]	58	58	4.2	–	–	–	percent recovery of memory in passive avoidance test (normal group = 100, scopolamine control = 0) at 50 mg/kg (male ICR mice [1]): 11%; percent recovery of cognitive function (Y-maze) at 50 mg/kg (male ICR mice [2]; [4]): 43%; HRE expression (HRE/Luc/HEK293 cells; concentration of 10 µM): more than threefold; HRE assay (HRE/Luc/HEK293 cells): •••
O[C@@H]1[C@@H](O)[C@@H](Oc2ccc(Cc3ccc(Oc4ccccc4)cc3)cc2)OC[C@@H]1O [Example 9, (2R,3R,4S,5S)-2-(4-(4-phenoxybenzyl)phenoxy) tetrahydro-2H-pyran-3,4,5-triol]	127	57	1.2	< 1	–	–	percent recovery of memory in passive avoidance test (normal group = 100, scopolamine control = 0) at 50 mg/kg (male ICR mice [1]): 32%; percent recovery of cognitive function (Y-maze) at 50 mg/kg (male ICR mice [2]; [4]): 9%; HRE assay (HRE/Luc/HEK293 cells): •
COc1cc2c(cc1OC)C(=O)C(CC1CCN(Cc3ccccc3)CC1)C2 (stereo not shown) [donepezil, reference compound]	219	67	–	–	–	–	cognitive function recovery compared to normal animals, passive avoidance test (effect %) (male ICR mice [1]; [7]): 94%; in vivo(effect) PAT (%) (male ICR mice [1]; [8]): 82%; in vivo PAT (sec), range (male ICR mice [1]; [9]): 173~251 sec; in vivo(effect) PAT (%), range (male ICR mice [1]; [10]): 59-95%; cognitive function recovery compared to normal animals, Y-maze experiment (effect %) (male ICR mice [2]; [7]): 35%; in vivo(effect) Y-maze (%) (male ICR mice [2]; [8]): 72%; in vivo Y-maze (%), range (male ICR mice [2]; [9]): 56-74%; in vivo(effect) Y-maze (%), range (male ICR mice [2]; [10]): 35-111%
COc1ccc(Cc2cccc(O[C@H]3OC[C@H](O)[C@H](O)[C@H]3O)c2)cc1 [Example 25, (2R,3R,4S,5S)-2-(3-(4-methoxybenzyl)phenoxy)tetrahydro-2H-pyran-3,4,5-triol]	42	62	–	–	–	–	percent recovery of memory in passive avoidance test (normal group = 100, scopolamine control = 0) at 50 mg/kg (male ICR mice [1]): 1%; percent recovery of cognitive function (Y-maze) at 50 mg/kg (male ICR mice [2]; read-out: cognitive function recovery compared to normal animals, Y-maze experiment (effect %)): ≥ 50%; percent recovery of cognitive function (Y-maze) at 50 mg/kg (male ICR mice [2]; [4]): 65%
COc1ccc(Cc2ccc(S[C@H]3OC[C@H](O)[C@H](O)[C@H]3O)cc2)cc1 [Example 29, (2R,3R,4S,5S)-2-((4-(4-methoxybenzyl)phenyl)thio) tetrahydro-2H-pyran-3,4,5-thiol]	–	–	2.7	2.6	–	–	–
Cc1ccc2oc(-c3ccc(O[C@@H]4OC[C@H](O)[C@H](O)[C@H]4O)cc3)nc2c1 [Example 108, (2S,3R,4S,5S)-2-(4-(5-methylbenzo[d]oxazol-2-yl)phenoxy)tetrahydro-2H-pyran-3,4,5-triol]	–	–	–	–	3.6	1.6	HRE expression (HRE/Luc/HEK293 cells; low concentration of 1 µM): more than threefold
CC(C)c1ccc(-c2ccc(O[C@H]3OC[C@H](O)[C@H](O)[C@H]3O)cc2)cc1 [Example 86, (2R,3R,4S,5S)-2-((4'-isopropyl-[1,1'-biphenyl]-4-yl)oxy) tetrahydro-2 H-pyran-3,4,5-triol]	–	–	–	–	1.9	3.2	–
Cc1ccc2oc(-c3ccc(O[C@@H]4OC[C@H](O)[C@H](O)[C@H]4O)c(Cl)c3)nc2c1 [Example 100, (2S,3R,4S,5S)-2-(2-chloro-4-(5-methylbenzo[d]oxazol-2-yl)phenoxy) tetrahydro-2H-pyran-3,4,5-triol]	–	–	–	–	2.7	2.4	–
O[C@@H]1[C@@H](O)[C@@H](Oc2ccc(Cc3ccc(OC4CCCC4)cc3)cc2)OC[C@@H]1O [Example 45, (2R,3R,4S,5S)-2-(4-(4-(cyclopentyloxy)benzyl)phenoxy)tetrahydro-2H-pyran-3,4,5-triol]	–	–	–	–	–	–	fold induction at 10 µM (HRE/Luc/HEK293 cells; [13]): 1.1; fold induction at 100 µM (HRE/Luc/HEK293 cells; [14]): 1.3
CN(C)c1ccc(Cc2ccc(O[C@@H]3OC[C@H](O)[C@H](O)[C@H]3O)cc2)cc1 [Example 12, (2S,3R,4S,5S)-2-(4-(4-(dimethylamino)benzyl)phenoxy) tetrahydro-2H-pyran 3,4,5-triol]	–	–	1.2	1.6	–	–	HRE assay (HRE/Luc/HEK293 cells): •
Cc1cc(C)cc(Oc2ccc(O[C@H]3OC[C@H](O)[C@H](O)[C@H]3O)cc2)c1 [Example 34, (2R,3R,4S,5S)-2-(4-(3,5-dimethylphenoxy)phenoxy)tetrahydro-2H-pyran-3,4,5-triol]	–	–	1.1	1	–	–	–
COc1ccc(Oc2ccc(O[C@H]3OC[C@H](O)[C@H](O)[C@H]3O)cc2)cc1 [Example 55, (2R,3R,4S,5S)-2-(4-(4-methoxyphenoxy)phenoxy)tetrahydro-2H-pyran-3,4,5-triol]	–	–	–	–	–	–	fold induction at 10 µM (HRE/Luc/HEK293 cells; [13]): 1.8; fold induction at 100 µM (HRE/Luc/HEK293 cells; [14]): 2.9
CCOc1ccc(Cc2ccc(O[C@H]3OC[C@H](O)[C@H](O)[C@H]3O)cc2)cc1 [Example 39, (2R,3R,4S,5S)-2-(4-(4-ethoxybenzyl)phenoxy) tetrahydro-2H-pyran-3,4,5-triol]	–	–	–	–	–	–	fold induction at 10 µM (HRE/Luc/HEK293 cells; [13]): 1.1; fold induction at 100 µM (HRE/Luc/HEK293 cells; [14]): 1.3
CC(C)c1cccc2nc(-c3cccc(O[C@H]4OC[C@H](O)[C@H](O)[C@H]4O)c3)oc12 [Example 97, (2R,3R,4S,5S)-2-(3-(7-isopropylbenzo[d]oxazol-2-yl)phenoxy)tetrahydro-2H-pyran-3,4,5-triol]	–	–	–	–	1.1	1.2	–
COc1ccc2oc(-c3ccc(O[C@@H]4OC[C@H](O)[C@H](O)[C@H]4O)c(Cl)c3)nc2c1 [Example 102, (2S,3R,4S,5S)-2-(2-chloro-4-(5-methoxybenzo[d]oxazol-2-yl)phenoxy)tetrahydro-2H-pyran-3,4,5-triol]	–	–	–	–	3.1	1.8	HRE expression (HRE/Luc/HEK293 cells; low concentration of 1 µM): more than threefold
